Our source for the efficacy values is the supplement of paper PMC10290057.

SMILES strings stand for the structures. Structures can show the parent of a compound that is named as a salt.
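Note: Luminescence-based viability readout, five doses per compound, normalized against on-plate DMSO and empty-well controls, followed by dose-response curve fitting for every drug.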

The test system of the assay is HCT116. The experiment in a line: efficacy (fitted maximal change in viability relative to DMSO control); higher = less cytotoxic (negative = loss of viability). The note with it: 48 h.
Take `CCCOc1ccn2c(C(C)=O)cc(-c3ccccc3[S+](C)(=O)[O-])c2c1` [GSK-2801]: the efficacy was -30.1%.
With `O=C(O)Cc1cccc(OCCCN(Cc2cccc(C(F)(F)F)c2Cl)CC(c2ccccc2)c2ccccc2)c1` [GSK-3965], the efficacy is -71.2%.
Take `COc1ccccc1C(=O)Nc1cc2c(cc1N1CCCCC1)n(C)c(=O)n2C` [GSK-5959]: the efficacy was -9.01%.
For `O=C(O)CCNc1cc(N2CCc3ccccc3CC2)nc(-c2cccnc2)n1` [GSK-J2], the efficacy is -21.7%.
As to `Cc1cc(SCc2sc(-c3ccc(C(F)(F)F)c(F)c3)nc2C)ccc1OCC(=O)O` [GW-0742], the efficacy was -21%.
As for `CN(CCOc1ccc(C[C@H](Nc2ccccc2C(=O)c2ccccc2)C(=O)O)cc1)c1ccccn1` [GW-1929], the efficacy was -7.57%.
As to `CC(C)c1onc(-c2c(Cl)cccc2Cl)c1COc1ccc(/C=C/c2cccc(C(=O)O)c2)c(Cl)c1` [GW-4064X], the efficacy is -29.7%.
In the case of `O=C1Nc2ccc(I)cc2/C1=C/c1cc(Br)c(O)c(Br)c1` [GW-5074], the efficacy is -38%.
On to `CCC(=O)NC[C@H](Cc1ccc(OCCc2nc(-c3ccccc3)oc2C)cc1)N/C(C)=C\C(=O)c1ccc(C(F)(F)F)cc1` [GW-6471], for which the efficacy is -30.2%.
`CC(C)(Sc1ccc(CCN(CCCCC2CCCCC2)C(=O)NC2CCCCC2)cc1)C(=O)O` [GW-7647]: the efficacy was -45.1%.
Under `O=C(O)CCc1ccc(NCc2cccc(Oc3ccccc3)c2)cc1` [GW-9508] stands -8.05%; under `CCOC(=O)c1ccc(OC(=O)CCCCCNC(=N)N)cc1` [Gabexate mesilate], 7.86%; under `Cc1cccc(-c2nn3c(c2-c2ccnc4ccc(C(N)=O)cc24)CCC3)n1` [Galunisertib], 12.5%.
Consider `N\C1=N\C2=C(N=C[N]2COC(CO)CO)C(=O)N1` [Ganciclovir], for which the efficacy is -18.1%.
`COc1cc2ncnc(Nc3ccc(F)c(Cl)c3)c2cc1OCCCN1CCOCC1` [Gefitinib]: the efficacy is -15.4%.
For `COC1=C2C[C@H](C)C[C@H](OC)[C@H](O)[C@@H](C)/C=C(/C)[C@H](OC(N)=O)[C@@H](OC)/C=C\C=C(\C)C(=O)NC(=CC1=O)C2=O` [Geldanamycin], the efficacy is -57.3%.
Turning to `Cc1ccc(C)c(OCCCC(C)(C)C(=O)O)c1` [Gemfibrozil], the efficacy is -13.1%.
Under `OC1=CC=C(C=C1)\C2=C\OC3=C(C(=CC(=C3)O)O)C2=O` [Genistein] stands -33.2%; under `CC[C@]12CC[C@H]3[C@@H](CCC/4=C/C(=O)CC[C@H]34)[C@@H]1\C=C/[C@@]2(O)C#C` [Gestodene], -21.8%; under `O=c1cc(O)c(Cl)c[nH]1` [Gimeracil], -6.4%.
For `C[C@@H]1C(=O)OC2[C@H](O)[C@]34[C@H]5C[C@@H](C(C)(C)C)[C@]36[C@@H](OC(=O)[C@@H]6O)O[C@@]4(C(=O)O5)[C@]21O` (some centres not stated) [Ginkgolide B] the value was -9.74%; for `CN1CC[C@@H](NC(=O)Nc2ccc(C#N)cc2)C[C@@H]1c1nc2ccccc2[nH]1` [Glasdegib], -8.71%.
Under `CCC1=C(C)CN(C(=O)NCCc2ccc(S(=O)(=O)NC(=O)N[C@H]3CC[C@H](C)CC3)cc2)C1=O` [Glimepiride] stands -14.8%; under `CN1[C@@H]2CCC[C@H]1CC(NC(=O)c1nn(C)c3ccccc13)C2` (some centres not stated) [Granisetron (AB-1001)], -17.2%; under `C=CC(=O)Nc1cc(N2CCN(CC)CC2)ccc1Nc1cc(N(C)C(=O)Nc2c(Cl)c(OC)cc(OC)c2Cl)ncn1` [H3B-6527], -19.6%.
Consider `CCOC(=O)C(C#N)C\1C2=CC(=CC=C2O\C(=C1C(=O)OCC)N)Br` (configuration not stated) [HA-14-1], for which the efficacy is -8.15%.
Regarding `Oc1cc2c(cc1O)C1c3ccc(O)c(O)c3OCC1(O)C2` (configuration not stated) [Hematoxylin], the efficacy is -9.9%.
As for `CCC(c1ccc(O)cc1)C(CC)c1ccc(O)cc1` (configuration not stated) [Hexestrol], the efficacy is -61.8%.
Consider `CNc1nc(Nc2ccc(C(=O)N3CCOCC3)cc2OC)ncc1Cl` [Hg-10-102-01], for which the efficacy was -12.2%.
Turning to `N[S+](=O)([O-])c1cc2c(cc1Cl)NCN[S+]2(=O)[O-]` [Hydrochlorothiazide], the efficacy is 7.16%.
On to `C[C@]\12CCC(=O)\C=C1CC[C@H]3[C@@H]4CC[C@](O)(C(=O)CO)[C@@]4(C)C[C@H](O)[C@H]23` [Hydrocortisone], for which the efficacy is -23%.
As to `C/C1=C2/[N]3[Co+]456([OH])<-[N]7=C1[C@@H](CCC(N)=O)C(C)(C)/C7=C/C1=[N]->4C(=C(/C)C4=[N]->5[C@@](C)([C@H]3[C@H](CC(N)=O)[C@@]2(C)CCC(=O)NC[C@@H](C)OP(=O)([O-])O[C@H]2[C@@H](O)[C@@H](n3c[n]->6c5cc(C)c(C)cc53)O[C@@H]2CO)[C@@](C)(CC(N)=O)[C@@H]4CCC(N)=O)/[C@@](C)(CC(N)=O)[C@@H]1CCC(N)=O` [Hydroxocobalamin], the efficacy is -39.6%.
Take `CC(C)(O)C(=O)Nc1ccc([N+](=O)[O-])c(C(F)(F)F)c1` [Hydroxyflutamide]: the efficacy was -27.7%.
On to `C[C@H](CCC(=O)O)[C@H]1CCC2C3C[C@H](O)[C@@H]4C[C@H](O)CC[C@]4(C)C3CC[C@@]21C` (some centres not stated) [Hyodeoxycholic acid], for which the efficacy was determined as 5.2%.
For `CCN(c1ccccc1)c1cc(NC)[n+](C)c(C)n1` [ICI-D7288] the value was -13%.
Take `CC(C(C)N1CC(=O)NC(=O)C1)N1CC(=O)NC(=O)C1` (configuration not stated) [ICRF-193]: the efficacy is -32.2%.
With `COc1ccc(-n2c(C)c([N+](=O)[O-])c3ccc(O)cc32)cc1` [ID-8], the efficacy was -14.4%.
In the case of `O=C(O)CCCCCC(=O)NN=C1CCCC1` [IDE-2], the efficacy is -8.18%.
Take `CCCCc1ccc(N[S+](=O)([O-])c2ccc(C)c(C(=O)N3CCN(c4cccc(C)c4C)CC3)c2)cc1` [IDH-001]: the efficacy is -48.4%.
In the case of `Cc1ccccc1C(C(=O)NC1CCCCC1)N(C(=O)CNc1ccc(C#N)cc1)c1cccc(F)c1` (configuration not stated) [IDH-C227], the efficacy was -56.1%.
Consider `COc1cc2ncn(-c3cc(OCc4ccccc4[S+](C)(=O)[O-])c(C#N)s3)c2cc1OC` [IKK-3 Inhibitor IX], for which the efficacy is -13.8%.
Turning to `OC(=O)CNC(=O)\C1=C(/O)C2=CC=CC=C2N(CC3=CC=CC=C3)C1=O` [IOX2], the efficacy turned out to be 9.68%.
Turning to `O=C(O)c1ccc(O)c2ncccc12` [IOX-1], the efficacy is -36.7%.
Under `Oc1ccc2ccccc2c1SSc1c(O)ccc2ccccc12` [IPA-3] stands -115%; under `Cc1cc(/C=c2/sc3nc4ccccc4n3c2=O)c(C)n1-c1ccccc1` [ITX3], -19.9%.
As for `CC1=CC=C2N=C(NC(=O)CS\C3=N\C4=C(\SCC4)C(=O)N3C5=CC=CC=C5)SC2=C1` [IWP-2], the efficacy is -12.9%.
Under `O=C1CC[C@H](N2Cc3c(OCc4ccc(CN5CCOCC5)cc4)cccc3C2=O)C(=O)N1` [Iberdomide] stands -18.8%; under `CC(C)(N)C(=O)N[C@H](COCc1ccccc1)C(=O)N1CCC2(CC1)CN([S+](C)(=O)[O-])c1ccccc12` [Ibutamoren mesilate], -50.7%.
With `CCCCCCCN(CC)CCCC(O)c1ccc(N[S+](C)(=O)[O-])cc1` (configuration not stated) [Ibutilide fumarate], the efficacy was -59.1%.
For `COC1=CC=C(C=C1)C/2=C(OC3O[C@@H](C)[C@H](O)[C@@H](O)[C@H]3O)/C(=O)C4=C(O2)C(=C(OC5O[C@H](CO)[C@@H](O)[C@H](O)[C@H]5O)C=C4O)CC=C(C)C` (some centres not stated) [Icariin], the efficacy is -27.5%.
For `COC1=CC=C(C=C1)/C2=C(O)/C(=O)C3=C(O)C=C(O)C(=C3O2)CC=C(C)C` [Icaritin] the value was -16.5%; for `C#Cc1cccc(Nc2ncnc3cc4c(cc23)OCCOCCOCCO4)c1` [Icotinib hydrochloride], -36%; for `CC[C@H](NC1=C2N=C[NH]C2=NC=N1)C/3=N/C4=C(C(=CC=C4)F)C(=O)N3C5=CC=CC=C5` [Idelalisib], -25.3%.
Regarding `C[S+]([O-])(=O)NC1=CC2=C(C=C1OC3=CC=CC=C3)C(=O)\C(=C/O2)NC=O` [Iguratimod], the efficacy is -14.8%.
Regarding `CNC(=O)[C@H](Cc1c[nH]c2ccccc12)NC(=O)[C@@H](CC(=O)NO)CC(C)C` [Ilomastat (GM6001, Galardin)], the efficacy is -7.39%.
As for `C[C@@H]\1/N=C(/N)NC(=N1)\N(C)C` [Imeglimin], the efficacy is -5.96%.
Consider `CC(C)Cn1cnc2c(N)nc3ccccc3c21` [Imiquimod], for which the efficacy was -14.9%.
Regarding `CC1Cc2ccccc2N1NC(=O)c1ccc(Cl)c([S+](N)(=O)[O-])c1` (configuration not stated) [Indapamide], the efficacy was -9.36%.
As for `O=C1Nc2ccccc2/C1=C1\Nc2ccccc2C1=O` [Indirubin], the efficacy is -9.8%.
On to `Cn1cc(C[C@@H](N)C(=O)O)c2ccccc21` [Indoximod], for which the efficacy was -9.77%.
For `C/C=C(/C)C(=O)O[C@H]1C(C)=CC23C(=O)C(C=C(CO)[C@@H](O)[C@]12O)[C@H]1[C@@H](C[C@H]3C)C1(C)C` (some centres not stated) [Ingenol mebutate], the efficacy was -63.6%.
Consider `NC(=O)c1ccc(I)c([N+](=O)[O-])c1` [Iniparib], for which the efficacy was -14.6%.
Take `CC(C)Oc1ccc2c(=O)c(-c3ccccc3)coc2c1` [Ipriflavone]: the efficacy was -27.7%.
Turning to `Cc1csc(NC(=O)c2sc3nc4c(c(C(F)(F)F)c3c2N)CCC4)n1` [Irestatin 9389], the efficacy was -42%.
`N[S+]([O-])(=O)OC1=CC=C2\C3=C(CCCCC3)/C(=O)OC2=C1` [Irosustat (STX-64)]: the efficacy is -30.6%.
`CN[C@@H]1[C@@H](O)[C@@H](O[C@@H]2[C@@H](O)[C@H](O[C@H]3O[C@H](CN)[C@@H](O)[C@H](O)[C@H]3O)[C@@H](N)C[C@H]2NC(=O)C(O)CN)OC[C@]1(C)O.O=S(=O)(O)O` (some centres not stated) [Isepamicin sulfate]: the efficacy was -15.7%.
In the case of `O=C(/C=C/c1ccc(O)cc1)c1ccc(O)cc1O` [Isoliquiritigenin], the efficacy was -62%.
